The source made the active and inactive calls. The rule behind the calls is not given here.
Tests used:
MCF7 [1] = assay: Downregulation of CREB protein expression in human MCF7 cells at 4 uM after 24 hrs by Western blot analysis; type: functional, cell-based
PC-3 [2] = assay: Anticancer activity against human PC3 cells xenografted in NOD-SCID mouse assessed as decrease in tumor weight at 20 mg/kg, iv q4d on days 1, 5 and 9; type: functional, organism-based; set-up: dose 20 mg/kg
MCF7 [3] = assay: Cell cycle arrest in human MCF7 cells assessed as accumulation at G1 phase at 4 uM after 24 hrs by propidium iodide staining based flow cytometry (reference value: 57.98%); type: functional
[4] = Growth inhibition of human Gurav cells; type: functional
SiHa = assay: Growth inhibition of human SiHa cells; type: functional
MCF7 [5] = assay: Cell cycle arrest in human MCF7 cells assessed as accumulation at G0 phase at 4 uM after 24 hrs by propidium iodide staining based flow cytometry (reference value: 2.77%); type: functional
MCF7 [6] = assay: Induction of apoptosis in human MCF7 cells assessed as Apoalert DNA fragmentation at 4 uM after 24 hrs by TUNEL assay; type: functional, cell-based
KB = assay: Growth inhibition of human KB cells; type: functional
MCF7 [7] = assay: Antiproliferative activity against human MCF7 cells assessed as cell proliferation at 4 uM after 24 hrs by BrdU incorporation assay (reference value: 100%); type: functional; settings: MCF7, 24 h, read-out: Activity
MCF7 [8] = assay: Upregulation of JNK1/2 protein expression in human MCF7 cells at 4 uM after 24 hrs by Western blot analysis; type: functional, cell-based
MCF7 [9] = assay: Cytotoxicity against human MCF7 cells assessed as decrease in cell viability at 4 uM after 24 hrs by MTT assay; type: functional, cell-based
MCF7 [10] = assay: Cell cycle arrest in human MCF7 cells assessed as accumulation at G2/M phase at 4 uM after 24 hrs by propidium iodide staining based flow cytometry (reference value: 24.95%); type: functional
MCF7 [11] = assay: Downregulation of c-Jun protein expression in human MCF7 cells at 4 uM after 24 hrs by Western blot analysis; type: functional, cell-based
A2780 = assay: Growth inhibition of human A2780 cells; type: functional
MCF7 [12] = assay: Upregulation of PARP protein expression in human MCF7 cells at 4 uM after 24 hrs by Western blot analysis; type: functional, cell-based
MCF7 [13] = assay: Cell cycle arrest in human MCF7 cells assessed as accumulation at S phase at 4 uM after 24 hrs by propidium iodide staining based flow cytometry (reference value: 14.30%); type: functional
MCF7 [14] = assay: Induction of apoptosis in human MCF7 cells assessed as procaspase-7 cleavage at 4 uM after 24 hrs by Western blot analysis; type: functional, cell-based
MCF7 [15] = assay: Downregulation of cyclin D1 protein expression in human MCF7 cells at 2 to 4 uM after 24 hrs by Western blot analysis; type: functional, cell-based
[16] = Toxicity in iv dosed NOD-SCID mouse xenografted with human PC3 cells assessed as maximum tolerated dose administered q4d on days 1, 5 and 9; type: organism-based, PC-3; settings: in vivo
MCF7 [17] = assay: Downregulation of Jun B protein expression in human MCF7 cells at 4 uM after 24 hrs by Western blot analysis; type: functional, cell-based
MCF7 [18] = assay: Growth inhibition of human MCF7 cells; type: functional
COLO 205 = assay: Growth inhibition of human COLO205 cells; type: functional
A549 = assay: Growth inhibition of human A549 cells; type: functional
MCF7 [19] = assay: Cytotoxicity against human MCF7 cells by ATP-dependent cell viability assay; type: functional, cell-based
MCF7 [20] = assay: Cytotoxicity against human MCF7 cells assessed as decrease in cell viability at 2 to 16 uM after 6 to 48 hrs by MTT assay; type: functional, cell-based
PC-3 [21] = assay: Growth inhibition of human PC3 cells; type: functional
Mus musculus [22] = assay: Toxicity in NOD-SCID mouse xenografted with human PC3 cells assessed as mortality at 20 mg/kg, iv q4d on days 1, 5 and 9; type: organism-based, PC-3; set-up: dose 20 mg/kg, route intravenous; settings: in vivo
HOP-62 = assay: Growth inhibition of human HOP62 cells; type: functional
Calf thymus DNA = assay: Binding affinity to calf thymus DNA assessed as change in melting temperature at compound to DNA ratio of 1:5 after 18 hrs by thermal denaturation analysis; type: nucleic-acid assay; settings: Bos taurus
MCF7 [23] = assay: Upregulation of Bax protein expression in human MCF7 cells at 4 uM after 24 hrs by Western blot analysis; type: functional, cell-based
MCF7 [24] = assay: Upregulation of p53 protein expression in human MCF7 cells at 4 uM after 24 hrs by Western blot analysis; type: functional, cell-based
MCF7 [25] = assay: Cell cycle arrest in human MCF7 cells assessed as accumulation at G0/G1 phase at 4 uM after 24 hrs by propidium iodide staining based flow cytometry (reference value: 60.75%); type: functional
PC-3 [26] = assay: Anticancer activity against human PC3 cells xenografted in NOD-SCID mouse assessed as decrease in tumor volume at 20 mg/kg, iv q4d on days 1, 5 and 9; type: functional, organism-based; set-up: dose 20 mg/kg
MCF7 [27] = assay: Downregulation of CDK4 protein expression in human MCF7 cells at 4 uM after 24 hrs by Western blot analysis; type: functional, cell-based
MCF7 [28] = assay: Induction of apoptosis in human MCF7 cells assessed as pRb protein expression at 4 uM after 24 hrs by Western blot analysis; type: functional, cell-based
ZR-75-1 = assay: Growth inhibition of human ZR-75-1 cells; type: functional
Mus musculus [29] = assay: Toxicity in NOD-SCID mouse xenografted with human PC3 cells assessed as weight loss at 20 mg/kg, iv q4d on days 1, 5 and 9; type: organism-based, PC-3; set-up: dose 20 mg/kg, route intravenous; settings: in vivo

For `COc1ccc(-c2ccc3c(c2)c2cc(-c4ccc(OC)cc4)ccc2n3CCCCN2CCN(CCCCOc3cc4c(cc3OC)C(=O)N3CCC[C@H]3C=N4)CC2)cc1`, the inhibition (MCF7 [1]) was “Active”, the inhibition (PC-3 [2]) was “Active” and the Activity (MCF7 [3]) was 63.03%. The GI50 [4] was 110 nM, the GI50 (SiHa) was 110 nM and the Activity (MCF7 [5]) was 25.31%. The Activity (MCF7 [6]) was “Active”, the GI50 (KB) was 100 nM and the growth at 4 µM (MCF7 [7]) was 28%. The Activity (MCF7 [8]) was “Active”, the inhibition (MCF7 [9]) was “Active” and the Activity (MCF7 [10]) was 6.2%. For the same compound, the inhibition (MCF7 [11]) was “Active”, the GI50 (A2780) was 10 nM and the Activity (MCF7 [12]) was “Active”. For the same compound, the Activity (MCF7 [13]) was 5.44%, the Activity (MCF7 [14]) was “Active” and the inhibition (MCF7 [15]) was “Active”. For the same compound, the MTD [16] was less than 50 mg/kg, the inhibition (MCF7 [17]) was “Active” and the GI50 (MCF7 [18]) was 10 nM. The GI50 (COLO 205) was 70 nM, the GI50 (A549) was 90 nM and the inhibition (MCF7 [19]) was “Active”. The inhibition (MCF7 [20]) was “Active”, the GI50 (PC-3 [21]) was 10 nM and the Activity (Mus musculus [22]) was “Non-toxic”. For the same compound, the GI50 (HOP-62) was 10 nM, the ΔTm (Calf thymus DNA) was 10.2 °C and the Activity (MCF7 [23]) was “Active”. The Activity (MCF7 [24]) was “Active”, the Activity (MCF7 [25]) was 88.34% and the inhibition (PC-3 [26]) was “Active”. For the same compound, the inhibition (MCF7 [27]) was “Active”, the Activity (MCF7 [28]) was “Active” and the GI50 (ZR-75-1) was 120 nM. For the same compound, the Activity (Mus musculus [29]) was “Non-toxic”.

From ChEMBL document CHEMBL3217457, “Carbazolepyrrolo[2,1-c][1,4]benzodiazepine conjugates: design, synthesis, and biological evaluation” (Medchemcomm, 2011)
